SMILES strings stand for the structures. Peptide text beside a SMILES is read from it.

Turning to `N#CCN`, the logP is -1.37.

On to `COc1ccc(I)cc1Cc1cnc(N)nc1N`, for which the logP stood at 2.7.

As for `COC(C)=O`, the logP was 0.18.

For `Cc1ccc(CO)cc1`, the logP was 1.58.

As for `C1COCCOCCOCCOCCO1`, the logP was -0.48.

On to `Clc1nc(Cl)c(Cl)c(Cl)c1Cl`, for which the logP worked out at 3.53.

As for `CC(C)c1nnc(S)n(N)c1=O`, the logP was 1.22.

`CCC(Cl)(CC)C(=O)NC(N)=O`: the logP is 1.4.

The molecule `OCCCc1ccccc1` showed a logP of 1.88.

In turn, `O=C(O)CNc1ccccc1` came in with a logP of 0.62.

For `COP(=O)(OC)OC(=CCl)c1cc(Cl)c(Cl)cc1Cl`, the logP came out at 3.53.

`C1COCO1` displayed a logP of -0.37.

Molecule `CCCCCN` showed a logP of 1.49.

For the molecule `CN(C)Cc1cccnc1`, the logP is 0.49.

Take `Cc1cnnc2ccc(Cl)cc12`: the logP is 1.96.

For `OC(CNCC(O)COc1ccccc1)COc1ccccc1` (stereo not drawn), the lipophilicity (logP) amounted to 2.52.

In the case of `O=S(=O)(N=[N+]([O-])c1ccccc1)c1ccccc1`, the logP worked out at 2.87.

Consider `CN(C)CC=Cc1ccccc1`, for which the logP amounted to 2.61.

Take `NC(=O)NO`: the logP is -1.8.

For the molecule `O=C(O)COc1ccc(Cl)cc1`, the logP was found to be 2.25.

On to `CC(=O)CC(=O)C(C)(C)C`, for which the logP was 1.67.

The molecule `C[N+](C)(C)Cc1ccccc1.[Cl-]` yielded a logP of -2.17.

`NCCCCCc1cccnc1` had a logP of 1.41.

Turning to `CC1CC2OC(=O)C(C)C2C(OC(=O)CC(=O)OC2C3C(CC(C)C4CCC(=O)C42C)OC(=O)C3C)C2(C)C(=O)CCC12` (stereo not drawn), the logP worked out at 0.76.

`COC(=O)C(=O)OC` registered a logP of -0.17.

Consider `c1ccc2c(c1)ccc1ncccc12`, for which the log partition coefficient (logP) turned out to be 3.43.

As to `CCOP(=O)(OCC)OCC`, the logP came to 0.8.

`CN(C)N=Nc1ccccc1C(N)=O` displayed a logP of 1.73.

The molecule `OCCCCc1ccncc1` returned a logP of 0.9.

As for `NS(=O)(=O)CCCOc1ccc([N+](=O)[O-])cc1`, the logP amounted to 0.97.

`CN(C)C(N(C)C)=S(I)c1cc(Cl)c(Cl)c(Cl)c1` (stereo not drawn) yielded a logP of 0.74.

Consider `C1=CC=CCC=C1`, for which the logP was found to be 2.63.

`CC(=O)Oc1ccccc1C(=O)O` yielded a lipophilicity (logP) of 1.19.

In turn, `Cc1ccc(CC(=O)O)cc1` gave a logP of 1.86.

`NC(=O)CCc1ccccn1` came in with a logP of -0.27.

`CCc1cnc(NS(=O)(=O)c2ccc(N)cc2)nc1` registered a logP of 0.9.

`NC(=O)Nc1cccc(F)c1` came in with a logP of 1.29.

Regarding `CC[C@H](C)[C@H](NC(C)=O)C(=O)N[C@H](C(N)=O)C(C)C` (Ac-Ile-Val-NH2), the logP worked out at 0.16.

Turning to `CNC(=O)OCc1c2c(n3c1C(OC(C)=O)CC3)C(=O)C(Cl)=C(OC)C2=O` (stereo not drawn), the logP was 2.08.

Turning to `Clc1cc(Cl)c(-c2c(Cl)ccc(Cl)c2Cl)cc1Cl`, the logP worked out at 7.28.

`Cn1cnc2c1c(=O)[nH]c(=O)n2C`: the logP is -0.78.

Take `CCCC(O)C(C(=O)O)c1ccc(-c2ccccc2)cc1` (stereo not drawn): the logP is 3.75.

With `CCc1ccc(C(=O)OCCN(C)C)cc1`, the logP is 3.15.

For the molecule `NS(=O)(=O)c1ccccc1[N+](=O)[O-]`, the logP worked out at 0.34.

`CSc1cccc(OCC(=O)O)c1` registered a logP of 1.9.

`C=CCC1(C(C)CCC)C(=O)NC(=S)NC1=O` (stereo not drawn) displayed a logP of 3.23.

Regarding `CCC(C)C(NCc1ccccc1)C(=O)O` (stereo not drawn), the logP is -0.27.

Molecule `COP(=O)(OC)OC=C(Cl)Cl` displayed a logP of 1.43.

`O=NN(CCCl)C(=O)NC1C(O)CCCC1O` (stereo not drawn) registered a lipophilicity (logP) of 0.16.

Regarding `OCc1ccoc1`, the logP was 0.3.

In turn, `O=S(=O)(CCl)c1ccccc1` yielded a logP of 1.24.

`O=C(CF)NC(CO)C(O)c1ccc([N+](=O)[O-])cc1` (stereo not drawn) showed a logP of 0.15.

On to `S=P(N1CC1)(N1CC1)N1CC1`, for which the logP was 0.53.

As to `O=C(O)c1cccc(O)c1O`, the logP was found to be 1.2.

With `COc1cc(C(=O)O)cc(OC)c1O`, the logP was determined as 1.04.

`O=C(CN1CCCCC1)Nc1cccc(I)c1`: the logP amounted to 3.92.

The molecule `O=C1C=CC(=NO)C=C1` showed a logP of 1.08.

The molecule `COC(=O)c1ccc[nH]1` came in with a logP of 1.17.

`CN(C)c1ccc(C(=C2C=CC(=[N+](C)C)C=C2)c2ccccc2)cc1.[Cl-]` had a logP of 0.62.

Molecule `Nc1cc2c3ccccc3ccc2c2ccccc12` yielded a logP of 4.99.

Turning to `CNc1nc(NC)nc(SC(F)F)n1`, the logP stood at 2.31.

The molecule `COc1ccc(OC(C)=O)cc1` yielded a logP of 1.54.

Consider `FC(F)(F)c1nc2c(Cl)cccc2[nH]1`, for which the logP turned out to be 2.93.

Molecule `CCCCCCCCN(C)/N=N/c1ccc(C(N)=O)cc1` had a logP of 4.7.

As to `COc1ccccc1NCC(C)=O`, the logP worked out at 1.49.

As to `CCC(C)C(NC(C)=O)C(=O)NC(Cc1ccccc1)C(=O)NC(C)C(N)=O` (stereo not drawn) (Ac-Ile-Phe-Ala-NH2; configuration not given here), the logP was 0.52.

Consider `c1ccc(Cc2ccccc2)cc1`, for which the logP is 4.14.

`NS(=O)(=O)c1ccc(I)cc1` displayed a logP of 1.59.

`CC(C)(Oc1ccccc1)C(=O)N[C@@H]1C(=O)N2[C@@H]1SC(C)(C)[C@@H]2C(=O)O`: the logP was determined as 2.76.

Take `CCNc1nc(Cl)nc(NCC)n1`: the logP stood at 2.18.

For `CC(C)Nc1nc(NC(C)(C)C)nc(SC(F)F)n1`, the logP is 4.7.

`COC(=O)CNC(=O)c1ccc([N+](=O)[O-])cc1` came in with a logP of 0.98.

In turn, `Cc1cc(NC(N)=O)ccc1Br` displayed a logP of 2.49.

As for `Oc1ccccc1I`, the logP is 2.65.

Take `Nc1ccn(C2CC(O)C(CO)O2)c(=O)n1` (stereo not drawn): the logP was -1.77.

For `O=[N+]([O-])c1ccc(C=Cc2ncc[nH]2)o1`, the logP is 1.32.

On to `CC(=O)N[C@@H](Cc1ccc(O)cc1)C(=O)N[C@@H](CC(C)C)C(N)=O` (Ac-Tyr-Leu-NH2), for which the logP stood at 0.32.

Molecule `CCN(CC)C(=O)N(CC)N=O` registered a logP of 1.54.

Take `C=C1C(=O)OC2CC(C)C3C=CC(=O)C3(C)CC12` (stereo not drawn): the logP came to 1.17.

The molecule `CC(=O)N[C@@H](Cc1ccccc1)C(=O)N[C@H](C(N)=O)C(C)C` (Ac-Phe-Val-NH2) showed a logP of 0.43.

`COc1c(C)ncc(CO)c1CO` displayed a logP of -0.1.

As for `CC12CCC(=O)C=C1CCC1C2C(O)CC2(C)C1CCC2(O)C(=O)COC(=O)CCC(N)=O` (stereo not drawn), the logP was 1.43.

`NC(=O)[C@@H]1CCCN1C(=O)[C@H](Cc1cnc[nH]1)NC(=O)[C@@H]1CCC(=O)N1` yielded a logP of -2.46.

For the molecule `COC(=O)Nc1cccc(Cl)c1`, the logP is 2.58.

As for `CC(C)(C)C(=O)C(Oc1ccc(Cl)cc1)n1cncn1` (stereo not drawn), the logP worked out at 2.77. This logP and that of the molecule before are within 0.2 log units of each other.

`O=[N+]([O-])c1ccc2c(c1)c([N+](=O)[O-])cc[n+]2[O-]` showed a logP of 0.9.

On to `O=C(NC(CO)C(O)c1ccc([N+](=O)[O-])cc1)C(Br)Br` (stereo not drawn), for which the logP stood at 1.36.

In turn, `CC(C)C(=O)c1ccccc1` registered a logP of 2.73.

For `O=S(=O)(Oc1ccccc1)c1ccccc1`, the logP worked out at 3.06.

The molecule `Cc1cc(C)c(C)c(C)c1C` came in with a log partition coefficient (logP) of 4.56.

Take `COc1cc(C(O)CN)ccc1O` (stereo not drawn): the logP was -1.05.

On to `CN(C)C(N(C)C)=S(I)c1cccc(Cl)c1` (stereo not drawn), for which the logP is -0.17.

`CCOS(=O)(=O)c1ccc(C)cc1`: the logP is 1.81.
